Patent publication US20250270209A1 (INTERLINE THERAPEUTICS, INC., priority 2022, published 2025)

Assays:
[1] = target: T1, wild type LRRK2 overexpressed in recombinant HEK-293T cells (Homo sapiens, UniProt Q5S007); test: pS935 LRRK2 Cell Assay (HTRF, phospho-LRRK2 Ser935); format: cell-based; details: LRRK2 Inhibition, Table 8, 2 hours compound incubation
T1 construct: host or cells: HEK293T (transient transfection with pCMV-LRRK2 WT plasmid)
Procedure, shortened: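 HEK-293T cells transiently transfected with wild-type LRRK2 for 24 h, plated overnight, then treated 2 h at 37° C with compound (top 10 μM, 3-fold, 9 doses, duplicates, 0.2% DMSO). Lysates probed overnight at 23° C by sandwich HTRF for pSer935; 665/615 nm ratio read.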

[2] = target: LRRK2 wild type enzyme (Homo sapiens, UniProt Q5S007); test: Biochemical Assay: LRRK2 TR-FRET (LanthaScreen) kinase assay with LRRKtide substrate; details: LRRK2 Inhibition, Table 8
Procedure, shortened: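 Human wild-type LRRK2 (3 nM) preincubated 15 min with compound (11-point, 3-fold, top 10 μM), then reacted 120 min at 23 °C with 400 nM LRRKtide and 25 μM ATP, pH 8.0. Stopped with EDTA; Tb-anti-pLRRKtide TR-FRET read after 30 min.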

T1 sequence (Q5S007 whole entry): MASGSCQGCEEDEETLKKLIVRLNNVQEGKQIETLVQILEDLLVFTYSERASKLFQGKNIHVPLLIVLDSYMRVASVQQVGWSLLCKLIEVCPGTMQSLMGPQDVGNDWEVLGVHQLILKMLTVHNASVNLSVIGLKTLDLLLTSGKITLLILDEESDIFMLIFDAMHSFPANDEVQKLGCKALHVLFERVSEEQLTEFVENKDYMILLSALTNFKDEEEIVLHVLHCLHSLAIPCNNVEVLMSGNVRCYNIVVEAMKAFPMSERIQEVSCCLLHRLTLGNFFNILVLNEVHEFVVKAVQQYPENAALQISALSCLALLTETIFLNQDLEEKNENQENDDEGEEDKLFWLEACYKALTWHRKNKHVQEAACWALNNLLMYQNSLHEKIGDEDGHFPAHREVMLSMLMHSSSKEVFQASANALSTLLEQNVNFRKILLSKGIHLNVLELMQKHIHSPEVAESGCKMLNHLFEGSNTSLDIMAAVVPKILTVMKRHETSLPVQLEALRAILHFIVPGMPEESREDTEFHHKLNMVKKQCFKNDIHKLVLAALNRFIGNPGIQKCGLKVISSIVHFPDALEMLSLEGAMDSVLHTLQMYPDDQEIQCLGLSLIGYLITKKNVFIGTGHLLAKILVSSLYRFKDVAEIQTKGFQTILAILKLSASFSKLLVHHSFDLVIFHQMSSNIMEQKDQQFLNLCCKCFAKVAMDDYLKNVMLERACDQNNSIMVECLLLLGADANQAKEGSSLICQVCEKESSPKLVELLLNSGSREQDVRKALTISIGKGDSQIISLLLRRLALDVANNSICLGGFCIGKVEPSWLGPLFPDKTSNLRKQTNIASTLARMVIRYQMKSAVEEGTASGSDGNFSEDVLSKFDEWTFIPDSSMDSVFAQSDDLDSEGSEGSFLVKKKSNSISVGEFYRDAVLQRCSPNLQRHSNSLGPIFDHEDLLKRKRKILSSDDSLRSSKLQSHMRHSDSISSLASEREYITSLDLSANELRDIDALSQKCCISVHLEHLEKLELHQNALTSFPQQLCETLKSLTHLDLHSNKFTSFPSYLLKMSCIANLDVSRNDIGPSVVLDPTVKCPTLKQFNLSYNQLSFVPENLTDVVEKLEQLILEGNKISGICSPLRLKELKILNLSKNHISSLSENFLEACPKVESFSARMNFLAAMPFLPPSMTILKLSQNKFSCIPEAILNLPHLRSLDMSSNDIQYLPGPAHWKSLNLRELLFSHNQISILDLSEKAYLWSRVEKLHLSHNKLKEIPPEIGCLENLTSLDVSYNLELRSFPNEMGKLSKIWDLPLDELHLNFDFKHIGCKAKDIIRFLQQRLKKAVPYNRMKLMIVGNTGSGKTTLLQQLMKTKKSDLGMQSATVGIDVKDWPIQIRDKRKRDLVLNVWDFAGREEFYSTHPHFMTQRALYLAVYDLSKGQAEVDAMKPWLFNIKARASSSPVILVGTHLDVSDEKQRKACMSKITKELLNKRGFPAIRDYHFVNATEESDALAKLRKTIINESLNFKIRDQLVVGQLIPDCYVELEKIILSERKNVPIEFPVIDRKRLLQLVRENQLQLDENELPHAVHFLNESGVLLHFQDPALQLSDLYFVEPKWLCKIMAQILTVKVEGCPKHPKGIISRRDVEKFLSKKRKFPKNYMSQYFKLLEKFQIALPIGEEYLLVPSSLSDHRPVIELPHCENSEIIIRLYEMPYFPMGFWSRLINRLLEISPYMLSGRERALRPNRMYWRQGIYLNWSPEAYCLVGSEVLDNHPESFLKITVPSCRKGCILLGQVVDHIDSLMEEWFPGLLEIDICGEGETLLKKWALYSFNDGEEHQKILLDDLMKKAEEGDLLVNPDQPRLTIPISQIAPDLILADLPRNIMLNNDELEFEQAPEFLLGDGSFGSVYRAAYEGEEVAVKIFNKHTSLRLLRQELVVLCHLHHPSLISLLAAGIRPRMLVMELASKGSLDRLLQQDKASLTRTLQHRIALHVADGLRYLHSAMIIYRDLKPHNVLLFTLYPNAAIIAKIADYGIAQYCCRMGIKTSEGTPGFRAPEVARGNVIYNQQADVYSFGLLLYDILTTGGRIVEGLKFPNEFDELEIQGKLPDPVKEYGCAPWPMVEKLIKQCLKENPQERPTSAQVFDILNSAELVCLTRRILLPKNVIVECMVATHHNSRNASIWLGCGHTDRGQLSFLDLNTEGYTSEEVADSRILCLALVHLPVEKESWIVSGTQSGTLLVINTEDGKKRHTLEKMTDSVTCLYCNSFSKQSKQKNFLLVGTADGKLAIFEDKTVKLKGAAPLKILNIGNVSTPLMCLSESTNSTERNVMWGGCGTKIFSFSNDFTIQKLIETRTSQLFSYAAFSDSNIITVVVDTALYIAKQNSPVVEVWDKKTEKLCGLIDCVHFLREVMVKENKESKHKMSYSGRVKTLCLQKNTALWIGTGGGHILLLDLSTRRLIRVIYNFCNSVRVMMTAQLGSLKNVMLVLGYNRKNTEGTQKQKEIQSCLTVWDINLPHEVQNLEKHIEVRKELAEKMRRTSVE
Chain of LRRK2 wild type enzyme (Q5S007 whole entry): as above

SMILES | IC50 [1] [nM] | IC50 [2] [nM]
Cc1nn(C)c(Cl)c1NC(=O)Cc1nc2cnc3ccc(C#N)cc3c2n1[C@@H]1CCO[C@H](C)C1 [Compound 296, N-(5-chloro-1-methyl-3-methyl-4-pyrazolyl){3-[(2R,4R)-2-methyltetrahydro-2H-pyran-4-yl]-12-cyano-3,5,8-triazatricyclo[7.4.0.0^2,6]trideca-1,4,6,8,10,12-hexaen-4-yl}acetamide] | 7.61 | 0.462
C[C@@H]1C[C@H](n2c(CC(=O)NC3COC3)nc3cnc4ccc(Cl)cc4c32)CCO1 [Compound 141, 2-{8-chloro-1-[(2R,4R)-2-methyloxan-4-yl]-1H-imidazo[4,5-c]quinolin-2-yl}-N-(oxetan-3-yl)acetamide] | 18.7 | 0.53
C[C@@H]1C[C@H](n2c(CNC(=O)C3CC3)nc3cnc4ccc(C#N)cc4c32)CCO1 [Compound 17, N-({8-cyano-1-[(2R,4R)-2-methyloxan-4-yl]-1H-imidazo[4,5-c]quinolin-2-yl}methyl)cyclopropanecarboxamide] | 477 | 6.61
C[C@@H]1C[C@H](n2c(CC(=O)NC3CCOc4cccnc43)nc3cnc4ccc(Cl)cc4c32)CCO1 (stereo partly drawn) [Compound 362, N-(3,4-dihydro-2H-1-oxa-5-azanaphth-4-yl){3-[(2R,4R)-2-methyltetrahydro-2H-pyran-4-yl]-12-chloro-3,5,8-triazatricyclo[7.4.0.0^2,6]trideca-1(9),2(6),4,7,10,12-hexaen-4-yl}acetamide] | 10.5 | 0.553
C[C@@H]1C[C@H](n2c(CC(=O)Nc3ccno3)nc3cnc4ccc(Cl)cc4c32)CCO1 [Compound 351, N-5-isoxazolyl{3-[(2R,4R)-2-methyltetrahydro-2H-pyran-4-yl]-12-chloro-3,5,8-triazatricyclo[7.4.0.0^2,6]trideca-1(9),2(6),4,7,10,12-hexaen-4-yl}acetamide] | 10.4 | 0.597
C[C@@H]1C[C@H](n2c([C@H]3CCCN(C(=O)C4CC4)C3)nc3cnc4ccc(C#N)cc4c32)CCO1 [Compound 29, 2-[(3S)-1-cyclopropanecarbonylpiperidin-3-yl]-1-[(2R,4R)-2-methyloxan-4-yl]-1H-imidazo[4,5-c]quinoline-8-carbonitrile] | 4680 | 135
Cc1nc(CNC(=O)Cc2nc3cnc4ccc(C#N)cc4c3n2[C@@H]2CCO[C@H](C)C2)no1 [Compound 259, N-[(5-methyl-1,2,4-oxadiazol-3-yl)methyl]{3-[(2R,4R)-2-methyltetrahydro-2H-pyran-4-yl]-12-cyano-3,5,8-triazatricyclo[7.4.0.0^2,6]trideca-1(9),2(6),4,7,10,12-hexaen-4-yl}acetamide] | 132 | 1.34
Cc1cncc(NC(=O)Cc2nc3cnc4ccc(C#N)cc4c3n2[C@@H]2CCO[C@H](C)C2)c1 [Compound 269, N-(5-methyl-3-pyridyl){3-[(2R,4R)-2-methyltetrahydro-2H-pyran-4-yl]-12-cyano-3,5,8-triazatricyclo[7.4.0.0^2,6]trideca-1,4,6,8,10,12-hexaen-4-yl}acetamide] | 5.17 | 0.379
C[C@@H]1C[C@H](n2c(CC(=O)NCc3cc(C4CC4)on3)nc3cnc4ccc(C#N)cc4c32)CCO1 [Compound 161, 2-{8-cyano-1-[(2R,4R)-2-methyloxan-4-yl]-1H-imidazo[4,5-c]quinolin-2-yl}-N-[(5-cyclopropyl-1,2-oxazol-3-yl)methyl]acetamide] | 4.38 | 0.356
C[C@@H]1C[C@H](n2c(CC(=O)Nc3cccn(CCO)c3=O)nc3cnc4ccc(C#N)cc4c32)CCO1 [Compound 225, N-[1-(2-hydroxyethyl)-2-oxo-1,2-dihydro-3-pyridyl]{3-[(2R,4R)-2-methyltetrahydro-2H-pyran-4-yl]-12-cyano-3,5,8-triazatricyclo[7.4.0.0^2,6]trideca-1,4,6,8,10,12-hexaen-4-yl}acetamide] | 104 | 0.388
C[C@@H]1C[C@H](n2c(CC(=O)N[C@H](C)c3ccccn3)nc3cnc4ccc(C#N)cc4c32)CCO1 [Compound 190, 2-{8-cyano-1-[(2R,4R)-2-methyloxan-4-yl]-1H-imidazo[4,5-c]quinolin-2-yl}-N-[(1R)-1-(pyridin-2-yl)ethyl]acetamide] | 18.7 | 0.696
C[C@@H]1C[C@H](n2c(CC(=O)Nc3ccnnc3)nc3cnc4ccc(C#N)cc4c32)CCO1 [Compound 268, N-4-pyridazinyl{3-[(2R,4R)-2-methyltetrahydro-2H-pyran-4-yl]-12-cyano-3,5,8-triazatricyclo[7.4.0.0^2,6]trideca-1,4,6,8,10,12-hexaen-4-yl}acetamide] | 109 | 0.461
COc1cc(F)ncc1NC(=O)Cc1nc2cnc3ccc(C#N)cc3c2n1[C@@H]1CCO[C@H](C)C1 [Compound 230, N-(6-fluoro-4-methoxy-3-pyridyl){3-[(2R,4R)-2-methyltetrahydro-2H-pyran-4-yl]-12-cyano-3,5,8-triazatricyclo[7.4.0.0^2,6]trideca-1,4,6,8,10,12-hexaen-4-yl}acetamide] | 4.9 | 0.442
C[C@@H]1C[C@H](n2c(CC(=O)N[C@H](C)C3CC3)nc3cnc4ccc(C#N)cc4c32)CCO1 [Compound 7, 2-{8-cyano-1-[(2R,4R)-2-methyloxan-4-yl]-1H-imidazo[4,5-c]quinolin-2-yl}-N-[(1R)-1-cyclopropylethyl]acetamide] | 47.2 | 0.794
C[C@@H]1C[C@H](n2c(CC(=O)NCc3ccn(C)n3)nc3cnc4ccc(C#N)cc4c32)CCO1 [Compound 157, 2-{8-cyano-1-[(2R,4R)-2-methyloxan-4-yl]-1H-imidazo[4,5-c]quinolin-2-yl}-N-[(1-methyl-1H-pyrazol-3-yl)methyl]acetamide] | 25.7 | 0.505
C[C@@H]1C[C@H](n2c(CC(=O)Nc3ccnn3C)nc3cnc4ccc(C#N)cc4c32)CCO1 [Compound 169, 2-{8-cyano-1-[(2R,4R)-2-methyloxan-4-yl]-1H-imidazo[4,5-c]quinolin-2-yl}-N-(1-methyl-1H-pyrazol-5-yl)acetamide] | 14.5 | 0.319
Cc1ncc(NC(=O)Cc2nc3cnc4ccc(C#N)cc4c3n2[C@@H]2CCO[C@H](C)C2)cn1 [Compound 329, N-(2-methyl-5-pyrimidinyl){3-[(2R,4R)-2-methyltetrahydro-2H-pyran-4-yl]-12-cyano-3,5,8-triazatricyclo[7.4.0.0^2,6]trideca-1(9),2(6),4,7,10,12-hexaen-4-yl}acetamide] | 16.5 | 0.483
C[C@@H]1C[C@H](n2c(CC(=O)Nc3cncn(C)c3=O)nc3cnc4ccc(C#N)cc4c32)CCO1 [Compound 223, N-(1-methyl-6-oxo-1,6-dihydro-5-pyrimidinyl){3-[(2R,4R)-2-methyltetahydro-2H-pyran-4-yl]-12-cyano-3,5,8-triazatricyclo[7.4.0.0^2,6]trideca-1,4,6,8,10,12-hexaen-4-yl}acetamide] | 10.8 | 0.316
C[C@@H]1C[C@H](n2c(C3CC(=O)N([C@@H]4CCOC4)C3)nc3cnc4ccc(C#N)cc4c32)CCO1 (stereo partly drawn) [Compound 44, 1-[(2R,4R)-2-methyloxan-4-yl]-2-{5-oxo-1-[(3R)-oxolan-3-yl]pyrrolidin-3-yl}-1H-imidazo[4,5-c]quinoline-8-carbonitrile] | 555 | 3.43
